Source: paper PMC7089538, “The effects of intra-stomach obestatin administration on intestinal contractility in neonatal piglets fed milk formula” (PLoS ONE, 2020)
Marks after values point to notes of the source that are not given here. Where no end group is shown, it is not given here.

Assays:
[1] = in vivo; settings: male, Polish Landrace x Pietrain, pig, po, obestatin concentration in the blood plasma
[2] = tested on: duodenum; assay: ACh-stimulated or atropine-treated contractions; type: in vivo, piglets (Polish Landrace x Pietrain); settings: 6 days, duodenum strips, atropine pretreatment (ATR^-6), mean ± SEM
[3] = tested on: middle jejunum; assay: ACh-stimulated or atropine-treated contractions; type: in vivo, piglets (Polish Landrace x Pietrain); settings: 6 days, middle jejunum strips, mean ± SEM; for amplitude of atropine treated contractions: atropine pretreatment (ATR^-6)
Description: (§1) Piglets' BW was recorded every morning. […] The protein concentration in the milk formula was 20%. […] The tissues were attached to isotonic transducers (Letica Scientific Instruments, Spain) under a load of 1.0 g that were coupled with a PowerLab recording system (ADInstruments, Sydney, Australia). […] The tissues were then washed and allowed to equilibrate. […] Half of randomly selected jejunal segments were pre-treated with atropine.

[4] = tested on: duodenum; assay: ACh-stimulated or atropine-treated contractions; type: in vivo, piglets (Polish Landrace x Pietrain); settings: 6 days, duodenum strips, mean ± SEM
Description: as §1

[5] = tested on: middle jejunum; assay: Spontaneous contractility of whole-thickness preparations in organ bath after 6-day enteral obestatin; type: in vivo, piglets (Polish Landrace x Pietrain); settings: 6 days, middle jejunum (Fig 2)
Description: as §1

[6] = tested on: duodenum; assay: as above; type: in vivo, piglets (Polish Landrace x Pietrain); settings: O15: obestatin 15 μg/kg BW intra-stomach every 8 h, 6 days; duodenal segment (Fig 2)
Description: as §1

[7] = O10: obestatin 10 μg/kg BW intra-stomach every 8 h
[8] = O15: obestatin 15 μg/kg BW intra-stomach every 8 h
[9] = O2: obestatin 2 μg/kg BW intra-stomach every 8 h, ACh^-4 (10^−4 M, cumulative)
[10] = O2: obestatin 2 μg/kg BW intra-stomach every 8 h, ACh^-5 (10^−5 M, cumulative)
[11] = O2: obestatin 2 μg/kg BW intra-stomach every 8 h, ACh^-6 (10^−6 M, cumulative)
[12] = O2: obestatin 2 μg/kg BW intra-stomach every 8 h, ACh^-7 (10^−7 M, cumulative)
[13] = O2: obestatin 2 μg/kg BW intra-stomach every 8 h, ACh^-8 (10^−8 M, cumulative)
[14] = O10: obestatin 10 μg/kg BW intra-stomach every 8 h, ACh^-4 (10^−4 M, cumulative)
[15] = O10: obestatin 10 μg/kg BW intra-stomach every 8 h, ACh^-5 (10^−5 M, cumulative)
[16] = O10: obestatin 10 μg/kg BW intra-stomach every 8 h, ACh^-6 (10^−6 M, cumulative)
[17] = O10: obestatin 10 μg/kg BW intra-stomach every 8 h, ACh^-7 (10^−7 M, cumulative)
[18] = O10: obestatin 10 μg/kg BW intra-stomach every 8 h, ACh^-8 (10^−8 M, cumulative)
[19] = O10: obestatin 10 μg/kg BW intra-stomach every 8 h, ACh^-9 (10^−9 M, cumulative)
[20] = O15: obestatin 15 μg/kg BW intra-stomach every 8 h, ACh^-4 (10^−4 M, cumulative)
[21] = O15: obestatin 15 μg/kg BW intra-stomach every 8 h, ACh^-5 (10^−5 M, cumulative)
[22] = O15: obestatin 15 μg/kg BW intra-stomach every 8 h, ACh^-6 (10^−6 M, cumulative)
[23] = O15: obestatin 15 μg/kg BW intra-stomach every 8 h, ACh^-7 (10^−7 M, cumulative)
[24] = O15: obestatin 15 μg/kg BW intra-stomach every 8 h, ACh^-8 (10^−8 M, cumulative)
[25] = O15: obestatin 15 μg/kg BW intra-stomach every 8 h, ACh^-9 (10^−9 M, cumulative)

FNAPFDVGIKLSGAQYQQHGRAL-NH2 [obestatin]
level at 1 h ([1]; 10 ug/kg BW): 0.475 ± 0.022 ng/mL | level at 0.5 h ([1]; 15 ug/kg BW): 0.405 ± 0.026 ng/mL | level at 1 h ([1]; 15 ug/kg BW): 0.45 ± 0.053 ng/mL | amplitude of atropine treated contractions [2, 7]: 0.97 ± 0.1 mm | amplitude of atropine treated contractions [2, 8]: 1.0 ± 0.1 mm | amplitude of ACh stimulated contractions [3, 9]: 12.3 ± 1.0^a^b mm | amplitude of ACh stimulated contractions [3, 10]: 8.0 ± 0.9 mm | amplitude of ACh stimulated contractions [3, 11]: 6.3 ± 0.9^a^b mm | amplitude of ACh stimulated contractions [3, 12]: 6.1 ± 0.8 mm | amplitude of ACh stimulated contractions [3, 13]: 6.0 ± 0.7 mm | amplitude of atropine treated contractions ([3]; O2: obestatin 2 μg/kg BW intra-stomach every 8 h): 0.97 ± 0.1^a^b mm | amplitude of ACh stimulated contractions [3, 14]: 12.5 ± 0.9^b mm | amplitude of ACh stimulated contractions [3, 15]: 10.1 ± 0.7 mm | amplitude of ACh stimulated contractions [3, 16]: 7.0 ± 0.9^b mm | amplitude of ACh stimulated contractions [3, 17]: 4.8 ± 0.9 mm | amplitude of ACh stimulated contractions [3, 18]: 4.6 ± 0.9 mm | amplitude of ACh stimulated contractions [3, 19]: 3.9 ± 0.8^a^b mm | amplitude of atropine treated contractions [3, 7]: 1.10 ± 0.2^b mm | amplitude of ACh stimulated contractions [3, 20]: 13.7 ± 0.8^b mm | amplitude of ACh stimulated contractions [3, 21]: 9.0 ± 0.8 mm | amplitude of ACh stimulated contractions [3, 22]: 7.3 ± 0.8^b mm | amplitude of ACh stimulated contractions [3, 23]: 6.8 ± 0.6 mm | amplitude of ACh stimulated contractions [3, 24]: 6.7 ± 0.7 mm | amplitude of ACh stimulated contractions [3, 25]: 6.6 ± 0.7^b mm | amplitude of atropine treated contractions [3, 8]: 1.20 ± 0.1^b mm | amplitude of ACh stimulated contractions [4, 9]: 14.1 ± 1.2^a^b mm | amplitude of ACh stimulated contractions [4, 10]: 11.2 ± 0.7 mm | amplitude of ACh stimulated contractions [4, 11]: 7.4 ± 0.9 mm | amplitude of ACh stimulated contractions [4, 12]: 7.1 ± 0.7 mm | amplitude of ACh stimulated contractions [4, 13]: 7.0 ± 0.7 mm | amplitude of ACh stimulated contractions ([4]; O2: obestatin 2 μg/kg BW intra-stomach every 8 h, ACh^-9 (10^−9 M, cumulative)): 6.2 ± 0.3 mm | amplitude of atropine treated contractions ([4]; O2: obestatin 2 μg/kg BW intra-stomach every 8 h, atropine pretreatment (ATR^-6)): 1.26 ± 0.2 mm | amplitude of ACh stimulated contractions [4, 14]: 12.3 ± 1.1^a^b mm | amplitude of ACh stimulated contractions [4, 15]: 8.2 ± 0.9 mm | amplitude of ACh stimulated contractions [4, 16]: 6.3 ± 0.9 mm | amplitude of ACh stimulated contractions [4, 17]: 6.1 ± 0.9 mm | amplitude of ACh stimulated contractions [4, 18]: 6.0 ± 0.8 mm | amplitude of ACh stimulated contractions [4, 19]: 5.9 ± 0.9 mm | amplitude of ACh stimulated contractions [4, 20]: 15.1 ± 0.4^b mm | amplitude of ACh stimulated contractions [4, 21]: 9.6 ± 0.6 mm | amplitude of ACh stimulated contractions [4, 22]: 6.7 ± 0.8 mm | amplitude of ACh stimulated contractions [4, 23]: 5.9 ± 0.6 mm | amplitude of ACh stimulated contractions [4, 24]: 5.4 ± 0.4 mm | amplitude of ACh stimulated contractions [4, 25]: 5.3 ± 0.5 mm | amplitude of spontaneous contractions compared to C [5, 7]: significant increase in the amplitude of contractions was observed in C piglets in comparison to O10 and O15 groups | amplitude of spontaneous contractions compared to C [5, 8]: significant increase in the amplitude of contractions was observed in C piglets in comparison to O10 and O15 groups | amplitude of spontaneous contractions compared to C [6]: significantly higher
